# Results from US5695970A, “Glucan lyase producing 1,5-anhydrofructose” (priority 1992, dated 1997).
# Read-outs that look alike come from different tables or passages of the source.
# Assays:
# [1] = tested on: hexokinase and glucose-6-phosphate dehydrogenase pathway; experiment: Metabolization of AF by hexokinase and glucose-6-phosphate dehydrogenase; assay type: biochemical
# [2] = tested on: α-1,4-glucan lyase; experiment: Inhibition studies of α-1,4-glucan lyase activity; assay type: biochemical, Gracilariopsis lemaneiformis; details: products accumulating during the enzyme reaction
# Procedure: The reaction mixture for the assay of α-1,4-glucan lyase was composed of 240 μl 62.5 mM Mops-NaOH containing 6 mg soluble starch (pH 6.2), the enzyme preparation and distilled water to a final volume of 300 μl. The reaction was carried out at 30° C. for 10-30 min. Liberated 1,5-anhydrofructose was determined by monitoring the absorbance at 546 nm after the addition of 3,5-dinitrosalicylic acid reagent. Soluble starch in the reaction mixture may be replaced by other substrates and the final substrate concentration may be varied as indicated in the text. The reaction time and enzyme concentration used in enzyme activity assay have been chosen to ensure the linearity of the reaction rate. One unit of α-1,4-glucan lyase activity is defined as the amount of enzyme which liberates 1μmol of 1,5-anhydrofructose min^-1 under the conditions described above.
# [3] = tested on: glucose peroxidase; experiment: Metabolization of AF by glucose peroxidase; assay type: biochemical
# [4] = assay type: physicochemical; details: for Absorbance at 546 nm: room temperature; for Absorbance (546 nm): Table VII, 10 min after DNS reagent
# Procedure: It can be seen that the reaction was completed in less than 10 minutes. […] (1990) Methods in Plant Biochemistry (Dey, P. M. and Harborne, J. B., eds.), Vol.3, pp. 103-127, Academic Press, London). |Time-course reaction of AF with DNS reagent at room |temperature. The absorbance at 546 nm as a measure of reaction |rate was recorded soon after the addition of 300 μl DNS reagent |to 300 μl sample solution containing varying amount of AF. […] The reaction of AF with 3,5-dinitrosalicylic acid reagent occurred at room temperature and was completed within 10 min (Table VI). A linear relationship exists for AF between the absorbance of 0.1-2.3 at 546 nm and AF content, ranging from 0.3-2.7 μmol or 50-440 μg i 300 μl sample (Table VII). […] This method is applicable to both the smallest substrate as maltose and the largest substrate as amylopectin. |The correlation between AF content and absorbance. |Absorbance was measured 10 min after the addition of |300 μl DNS reagent to 300 μl sample solution |containing varying amount of AF as indicated.
compound,measurement,setting,value
"O=C1CO[C@H](CO)[C@@H](O)[C@@H]1O [AF, 1,5-anhydrofructose]",metabolization through hexokinase and glucose-6-phosphate dehydrogenase pathway,[1],can not be metabolized
same,product inhibition: effect on enzyme reaction rate,[2],negligible effect
same,metabolization by glucose peroxidase,[3],can not be metabolized
same,reducing power (in words),"[4]; 3,5-dinitrosalicylic acid reagent at room temperature",high reducing power
same,Absorbance at 546 nm,"[4]; AF content 0.55 μmol, reaction time 0 min",0
same,Absorbance at 546 nm,"[4]; AF content 0.55 μmol, reaction time 1 min",0.037
same,Absorbance at 546 nm,"[4]; AF content 0.55 μmol, reaction time 2 min",0.180
same,Absorbance at 546 nm,"[4]; AF content 0.55 μmol, reaction time 3 min",0.274
same,Absorbance at 546 nm,"[4]; AF content 0.55 μmol, reaction time 4 min",0.341
same,Absorbance at 546 nm,"[4]; AF content 0.55 μmol, reaction time 5 min",0.386
same,Absorbance at 546 nm,"[4]; AF content 0.55 μmol, reaction time 6 min",0.414
same,Absorbance at 546 nm,"[4]; AF content 0.55 μmol, reaction time 7 min",0.431
same,Absorbance at 546 nm,"[4]; AF content 0.55 μmol, reaction time 8 min",0.440
same,Absorbance at 546 nm,"[4]; AF content 0.55 μmol, reaction time 9 min",0.444
same,Absorbance at 546 nm,"[4]; AF content 0.55 μmol, reaction time 10 min",0.446
same,Absorbance at 546 nm,"[4]; AF content 1.26 μmol, reaction time 0 min",0
same,Absorbance at 546 nm,"[4]; AF content 1.26 μmol, reaction time 1 min",0.218
same,Absorbance at 546 nm,"[4]; AF content 1.26 μmol, reaction time 2 min",0.468
same,Absorbance at 546 nm,"[4]; AF content 1.26 μmol, reaction time 3 min",0.660
same,Absorbance at 546 nm,"[4]; AF content 1.26 μmol, reaction time 4 min",0.796
same,Absorbance at 546 nm,"[4]; AF content 1.26 μmol, reaction time 5 min",0.888
same,Absorbance at 546 nm,"[4]; AF content 1.26 μmol, reaction time 6 min",0.948
same,Absorbance at 546 nm,"[4]; AF content 1.26 μmol, reaction time 7 min",0.985
same,Absorbance at 546 nm,"[4]; AF content 1.26 μmol, reaction time 8 min",1.007
same,Absorbance at 546 nm,"[4]; AF content 1.26 μmol, reaction time 9 min",1.024
same,Absorbance at 546 nm,"[4]; AF content 1.26 μmol, reaction time 10 min",1.029
same,Absorbance at 546 nm,"[4]; AF content 2.36 μmol, reaction time 0 min",0
same,Absorbance at 546 nm,"[4]; AF content 2.36 μmol, reaction time 1 min",0.476
same,Absorbance at 546 nm,"[4]; AF content 2.36 μmol, reaction time 2 min",0.930
same,Absorbance at 546 nm,"[4]; AF content 2.36 μmol, reaction time 3 min",1.271
same,Absorbance at 546 nm,"[4]; AF content 2.36 μmol, reaction time 4 min",1.510
same,Absorbance at 546 nm,"[4]; AF content 2.36 μmol, reaction time 5 min",1.671
same,Absorbance at 546 nm,"[4]; AF content 2.36 μmol, reaction time 6 min",1.775
same,Absorbance at 546 nm,"[4]; AF content 2.36 μmol, reaction time 7 min",1.840
same,Absorbance at 546 nm,"[4]; AF content 2.36 μmol, reaction time 8 min",1.880
same,Absorbance at 546 nm,"[4]; AF content 2.36 μmol, reaction time 9 min",1.905
same,Absorbance at 546 nm,"[4]; AF content 2.36 μmol, reaction time 10 min",1.920
same,Absorbance at 546 nm,"[4]; AF content 2.84 μmol, reaction time 0 min",0
same,Absorbance at 546 nm,"[4]; AF content 2.84 μmol, reaction time 1 min",0.559
same,Absorbance at 546 nm,"[4]; AF content 2.84 μmol, reaction time 2 min",1.222
same,Absorbance at 546 nm,"[4]; AF content 2.84 μmol, reaction time 3 min",1.628
same,Absorbance at 546 nm,"[4]; AF content 2.84 μmol, reaction time 4 min",1.898
same,Absorbance at 546 nm,"[4]; AF content 2.84 μmol, reaction time 5 min",2.070
same,Absorbance at 546 nm,"[4]; AF content 2.84 μmol, reaction time 6 min",2.176
same,Absorbance at 546 nm,"[4]; AF content 2.84 μmol, reaction time 7 min",2.239
same,Absorbance at 546 nm,"[4]; AF content 2.84 μmol, reaction time 8 min",2.278
same,Absorbance at 546 nm,"[4]; AF content 2.84 μmol, reaction time 9 min",2.300
same,Absorbance at 546 nm,"[4]; AF content 2.84 μmol, reaction time 10 min",2.311
same,Absorbance (546 nm),[4]; AF content 0.264 μmol,0.113
same,Absorbance (546 nm),[4]; AF content 0.340 μmol,0.154
same,Absorbance (546 nm),[4]; AF content 0.360 μmol,0.166
same,Absorbance (546 nm),[4]; AF content 0.526 μmol,0.305
same,Absorbance (546 nm),[4]; AF content 0.540 μmol,0.237
same,Absorbance (546 nm),[4]; AF content 0.636 μmol,0.355
same,Absorbance (546 nm),[4]; AF content 0.655 μmol,0.514
same,Absorbance (546 nm),[4]; AF content 0.702 μmol,0.584
same,Absorbance (546 nm),[4]; AF content 0.929 μmol,0.682
same,Absorbance (546 nm),[4]; AF content 1.089 μmol,0.710
same,Absorbance (546 nm),[4]; AF content 1.148 μmol,0.880
same,Absorbance (546 nm),[4]; AF content 1.181 μmol,0.880
same,Absorbance (546 nm),[4]; AF content 1.241 μmol,1.099
same,Absorbance (546 nm),[4]; AF content 1.514 μmol,1.415
same,Absorbance (546 nm),[4]; AF content 1.529 μmol,1.260
same,Absorbance (546 nm),[4]; AF content 1.588 μmol,1.516
same,Absorbance (546 nm),[4]; AF content 1.627 μmol,1.302
same,Absorbance (546 nm),[4]; AF content 1.712 μmol,1.409
same,Absorbance (546 nm),[4]; AF content 2.031 μmol,1.830
same,Absorbance (546 nm),[4]; AF content 2.052 μmol,1.703
same,Absorbance (546 nm),[4]; AF content 2.183 μmol,1.806
same,Absorbance (546 nm),[4]; AF content 2.241 μmol,1.787
same,Absorbance (546 nm),[4]; AF content 2.362 μmol,1.875
same,Absorbance (546 nm),[4]; AF content 2.683 μmol,2.266
same,Absorbance (546 nm),[4]; AF content 3.221 μmol,2.590
